Laboratory results published in patent publication US9938262B2, “Benzamides” (Merck Patent GmbH, priority 2011, dated 2018).

Target: T1, FSHR (Homo sapiens, UniProt P23945)
T1 construct: expressed in transfected cells; host or cells: CHO (Cho-FSHR-LUC-1-1-43)
Assay: EC50 of cyclic AMP production in CHO FSHR cells + EC20 FSH (Assay A)
Type: cell-based
Details: Table 1; for activation at 5 µM: 1 h, effect relative to maximum response of the FSH standard; for EC50: CHO FSHR cells + EC20 FSH, read-out: Assay A EC50 of cyclic AMP production
Protocol: Example 10: EC50 of Cyclic AMP Production in CHO FSHR Cells+EC20 FSH (Assay A)
2500 Cho-FSHR-LUC-1-1-43 cells were plated per well in 5 μl of phenol red free DMEM/F12+1% FBS. Cells were plated in 384 well, solid white low volume plates (Greiner 784075) by Multidrop. Cells were assayed by adding 100 μl of 2×EC20 FSH/IBMX in DMEM/F12+0.1% BSA) by Multidrop to 2 μl of test compound stamped in 384 well plates (compounds are diluted 1:50). The final FSH concentration was […], and the final IBMX concentration was 200 μM. The compound plate map was as follows: Column 1: 2 μl of DMSO; Column 2: 2 μl of DMSO; Columns 3-12 and 13-24: 2 μl of test compound, diluted 1:4 in 100% DMSO, or 2 μl of FSH, diluted 1:4 in DMEM/F12+0.1% BSA. The starting concentration for FSH was 50 nM (final concentration was 0.5 nM). […] 5 μl of compound+EC20 FSH mixture were transferred to cell plates (1:2 dilution into 5 μl of cell media) The plates were incubated at 37° C. for 1 h. 10 μl of mixed HTRF (CisBio #62AM4PEC) reagents were added per well and incubated at room temperature for 1 h. The plates were read on Envision using the cAMP HTRF—low volume 384 well protocol. The readout was the calculated fluorescence ratio (665 nm/620 nm). Values given in percent (%) indicate the percental effect (response) at a certain concentration of agonist relative to the maximum response of the FSH standard.

T1 sequence (P23945 18-695): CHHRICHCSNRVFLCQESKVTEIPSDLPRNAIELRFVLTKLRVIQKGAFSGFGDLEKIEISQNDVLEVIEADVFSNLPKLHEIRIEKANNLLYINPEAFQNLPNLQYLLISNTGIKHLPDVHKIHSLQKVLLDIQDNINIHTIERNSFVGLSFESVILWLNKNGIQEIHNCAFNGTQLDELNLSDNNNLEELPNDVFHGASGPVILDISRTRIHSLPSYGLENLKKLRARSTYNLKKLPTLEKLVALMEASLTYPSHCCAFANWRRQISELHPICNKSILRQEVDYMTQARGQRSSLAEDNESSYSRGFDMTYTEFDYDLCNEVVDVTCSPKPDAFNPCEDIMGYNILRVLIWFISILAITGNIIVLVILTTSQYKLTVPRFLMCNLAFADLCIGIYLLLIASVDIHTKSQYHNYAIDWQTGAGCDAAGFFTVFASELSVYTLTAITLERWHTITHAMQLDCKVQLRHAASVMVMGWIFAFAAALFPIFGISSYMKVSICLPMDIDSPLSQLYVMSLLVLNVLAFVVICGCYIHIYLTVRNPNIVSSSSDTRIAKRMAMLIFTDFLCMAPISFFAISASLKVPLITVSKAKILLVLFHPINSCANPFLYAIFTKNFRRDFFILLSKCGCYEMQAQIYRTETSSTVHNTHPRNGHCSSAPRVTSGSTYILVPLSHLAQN
T1 sequence (P01215 25-116 partner): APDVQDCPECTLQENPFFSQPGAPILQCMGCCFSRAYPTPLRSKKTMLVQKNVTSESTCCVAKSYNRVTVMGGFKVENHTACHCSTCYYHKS
T1 sequence (P01225 19-129 partner): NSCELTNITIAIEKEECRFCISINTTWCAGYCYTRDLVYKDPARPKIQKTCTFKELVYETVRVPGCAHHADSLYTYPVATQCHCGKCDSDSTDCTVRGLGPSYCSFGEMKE

SMILES | activation at 5 µM [%] | EC50 [µM]
CCc1onc(C)c1C(=O)Nc1cc(C(=O)NCCCN2CCCC2=O)ccc1N1CCN(c2ccccc2C)CC1 [Compound 81] | 11 | 
Cc1ccccc1N1CCN(c2ccc(C(=O)NCCCN3CCCC3=O)cc2NC(=O)C2CCCCC2)CC1 [Compound 82] |  | 1 to 10
Cc1ccccc1N1CCN(c2ccc(C(=O)NCCCN3CCCC3=O)cc2NC(=O)C2CCN(C)CC2)CC1 [Compound 83] | 8 | 
Cc1ccccc1N1CCN(c2ccc(C(=O)NCCCN3CCCC3=O)cc2NC(=O)c2cccc(N(C)C)c2)CC1 [Compound 86] | 47 | 
Cc1ccccc1N1CCN(c2ccc(C(=O)NCCCN3CCCC3=O)cc2NC(=O)c2ccccc2C(F)(F)F)CC1 [Compound 87] |  | 1 to 10
Cc1ccccc1N1CCN(c2ccc(C(=O)NCCCN3CCCC3=O)cc2NC(=O)c2cccc3ccccc23)CC1 [Compound 88] | 34 | 
Cc1ccccc1N1CCN(c2ccc(C(=O)NCCCc3ccccc3)cc2NC(=O)c2ccco2)CC1 [Compound 89] |  | 0.1 to 1
Cc1ccccc1N1CCN(c2ccc(C(=O)NCCCn3cccn3)cc2NC(=O)c2ccco2)CC1 [Compound 90] |  | 0.1 to 1
Cc1ccccc1N1CCN(c2ccc(C(=O)N[C@@H](C)C(=O)NC3CCCC3)cc2NC(=O)c2ccco2)CC1 [Compound 91] |  | 1 to 10
Cc1ccccc1N1CCN(c2ccc(C(=O)NCCCN3CCCC3=O)cc2NC(=O)C2CCCO2)CC1 (centres unmarked) [Compound 92] |  | 1 to 10
COc1cccc(CNC(=O)c2ccc(N3CCN(c4ccccc4C)CC3)c(NC(=O)c3ccco3)c2)c1 [Compound 93, Furan-2-carboxylic acid [5-(3-methoxy-benzylcarbamoyl)-2-(4-o-tolyl-piperazin-1-yl)-phenyl]-amide] |  | 0.1 to 1
Cc1ccccc1N1CCN(c2ccc(C(=O)NCc3ccc(C(F)(F)F)cc3)cc2NC(=O)c2ccco2)CC1 [Compound 94, Furan-2-carboxylic acid [2-(4-o-tolyl-piperazin-1-yl)-5-(4-trifluoromethyl-benzylcarbamoyl)-phenyl]-amide] | 48 | 
COc1cc(CNC(=O)c2ccc(N3CCN(c4ccccc4C)CC3)c(NC(=O)c3ccco3)c2)cc(OC)c1 [Compound 95, Furan-2-carboxylic acid [5-(3,5-dimethoxy-benzylcarbamoyl)-2-(4-o-tolyl-piperazin-1-yl)-phenyl]-amide] |  | 0.1 to 1
Cc1ccccc1N1CCN(c2ccc(C(=O)NCc3cccc4ccccc34)cc2NC(=O)c2ccco2)CC1 [Compound 96, Furan-2-carboxylic acid [5-[(naphthalen-1-ylmethyl)-carbamoyl]-2-(4-o-tolyl-piperazin-1-yl)-phenyl]-amide] |  | > 10
Cc1ccccc1N1CCN(c2ccc(C(=O)NCCCN3CCCC3=O)cc2NC(=O)c2ccno2)CC1 [Compound 98] |  | 1 to 10
Cc1ccccc1N1CCN(c2ccc(C(=O)NCCCN3CCCC3=O)cc2NC(=O)c2cncs2)CC1 [Compound 99] | 35 | 
CCNc1nc(C)c(C(=O)Nc2cc(C(=O)NCCCN3CCCC3=O)ccc2N2CCN(c3ccccc3C)CC2)s1 [Compound 100] | 12 | 
Cc1ccccc1N1CCN(c2ccc(C(=O)NCCCN3CCCC3=O)cc2NC(=O)c2csc(Br)n2)CC1 [Compound 101] |  | 1 to 10
Cc1nc(C(=O)Nc2cc(C(=O)NCCCN3CCCC3=O)ccc2N2CCN(c3ccccc3C)CC2)c(C)o1 [Compound 102] |  | 1 to 10
Cc1ccccc1N1CCN(c2ccc(C(=O)NCCCN3CCCC3=O)cc2NC(=O)c2cocn2)CC1 [Compound 103] |  | 1 to 10
Cc1ccccc1N1CCN(c2ccc(C(=O)NCCCN3CCCC3=O)cc2NC(=O)c2c(C)noc2C)CC1 [Compound 106] | 33 | 

SMILES | activation at 5 µM [%] | EC50 [µM]
Cc1ccccc1N1CCN(c2ccc(C(=O)NCCCN3CCCC3=O)cc2NC(=O)c2cnoc2C)CC1 [Compound 107] | 15 | 
Cc1ccccc1N1CCN(c2ccc(C(=O)NCCCN3CCCC3=O)cc2NC(=O)c2cnoc2C2CC2)CC1 [Compound 109] | 10 | 
Cc1ccccc1N1CCN(c2ccc(C(=O)NCCCN3CCCC3=O)cc2NC(=O)c2csnn2)CC1 [Compound 110] |  | 1 to 10
Cc1ccccc1C(=O)Nc1cc(C(=O)NCCCN2CCCC2=O)ccc1N1CCN(c2ccccc2C)CC1 [Compound 111] |  | 1 to 10
Cc1ccccc1N1CCN(c2ccc(C(=O)NCCCN3CCCC3=O)cc2NC(=O)c2cccc3c2CCCC3)CC1 [Compound 112] | 21 | 
Cc1ccccc1N1CCN(c2ccc(C(=O)NCCCN3CCCC3=O)cc2NC(=O)c2ccc3ccn(C)c3c2)CC1 [Compound 114] | 40 | 
Cc1ccccc1N1CCN(c2ccc(C(=O)NCCCN3CCCC3=O)cc2NC(=O)c2cccc3nccnc23)CC1 [Compound 115] | 39 | 
Cc1ccccc1N1CCN(c2ccc(C(=O)NCCCn3ccnc3)cc2NC(=O)c2ccco2)CC1 [Compound 116] |  | 0.1 to 1
Cc1ccccc1N1CCN(c2ccc(C(=O)NCCCN3CCCC3)cc2NC(=O)c2ccco2)CC1 [Compound 117] |  | 1 to 10
Cc1ccccc1N1CCN(c2ccc(C(=O)NCCCn3ccnc3C)cc2NC(=O)c2ccco2)CC1 [Compound 118] |  | 0.1 to 1
Cc1ccccc1N1CCN(c2ccc(C(=O)NCCS(=O)(=O)N3CCCC3)cc2NC(=O)c2ccco2)CC1 [Compound 119] |  | 0.1 to 1
Cc1ccccc1N1CCN(c2ccc(C(=O)NCCC(=O)N3CCCC3)cc2NC(=O)c2ccco2)CC1 [Compound 120] |  | 0.1 to 1
COc1ccc(CNC(=O)c2ccc(N3CCN(c4ccccc4C)CC3)c(NC(=O)c3ccco3)c2)cc1 [Compound 122] | 24 | 
COc1ccccc1CNC(=O)c1ccc(N2CCN(c3ccccc3C)CC2)c(NC(=O)c2ccco2)c1 [Compound 124, Furan-2-carboxylic acid [5-(2-methoxy-benzylcarbamoyl)-2-(4-o-tolyl-piperazin-1-yl)-phenyl]-amide] | 82 | 
O=C(NCCCN1CCCC1=O)c1ccc(N2CCN(c3ccccn3)CC2)c(NC(=O)c2ccco2)c1 [Compound 126] | 33 | 
COc1ccc(C(=O)Nc2cc(C(=O)NCCCN3CCCC3=O)ccc2N2CCN(c3ccccc3C)CC2)cc1OC [Compound 127] | 33 | 
Cc1ccccc1N1CCN(c2ccc(C(=O)NCCCN3CCCC3=O)cc2NC(=O)c2ccc(Cl)cn2)CC1 [Compound 129] |  | 0.1 to 1
Cc1ccc(C(=O)Nc2cc(C(=O)NCCCN3CCCC3=O)ccc2N2CCN(c3ccccc3F)CC2)o1 [Compound 130, 5-Methyl-furan-2-carboxylic acid {2-[4-(2-fluoro-phenyl)-piperazin-1-yl]-5-[3-(2-oxo-pyrrolidin-1-yl)-propylcarbamoyl]-phenyl}-amide] |  | 1 to 10
Cc1ccccc1N1CCN(c2ccc(C(=O)NCc3ccc(Cl)cc3)cc2NC(=O)c2ccco2)CC1 [Compound 131, Furan-2-carboxylic acid [5-(4-chloro-benzylcarbamoyl)-2-(4-o-tolyl-piperazin-1-yl)-phenyl]-amide] |  | 0.1 to 1
CNCCNC(=O)c1ccc(N2CCN(c3ccccc3C)CC2)c(NC(=O)c2ccco2)c1 [Compound 132, Furan-2-carboxylic acid [5-(2-methylamino-ethylcarbamoyl)-2-(4-o-tolyl-piperazin-1-yl)-phenyl]-amide] |  | 1 to 10
